Test results reported in the supplement of paper PMC10307832.

Tests used:
[1] = compound: CC1(C)CNc2cc(NC(=O)c3cccnc3NCc3ccncc3)ccc21 [Motesanib]; test: relative viability (nuclei count vs DMSO), 5 days (fraction); higher = more cells survive
Procedure, shortened: (§1)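 Acceptance criteria were a control CV below 25% and at least one doubling per plate. Lung cancer cell lines in 1536-well plates got five library-drug doses (not always all listed) √10 apart by pinning and were left 5 days with no medium change. Viability divides treated-well nuclei by vehicle-well nuclei and is the median across plates. Nuclei were counted by MetaXpress from 4× Hoechst images.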

[2] = compound: C[C@@]1(C(=O)Nc2ccc(F)nc2)CCCN1c1nc(Nc2cc(C3CC3)n[nH]2)c2cccn2n1; test: as above
Procedure, shortened: as §1

Cell Line	relative viability ([1]; 0.01 µM)	relative viability ([1]; 0.03162 µM)	relative viability ([1]; 0.1 µM)	relative viability ([1]; 0.3162 µM)	relative viability ([1]; 1 µM)	relative viability ([2]; 0.04 µM)	relative viability ([2]; 0.1265 µM)	relative viability ([2]; 0.4 µM)	relative viability ([2]; 1.265 µM)
NCI-H1793	0.865	1.02	0.867	0.963	0.967	0.974	0.738	0.67	1.04
NCI-H1915	0.978	0.988	0.908	1.05	1.04	1	1.06	0.982	0.982
NCI-H1944	0.946	0.961	0.914	1.05	0.989	0.768	0.75	0.63	0.663
NCI-H1975	0.876	0.914	0.996	0.995	0.98	0.943	0.981	0.649	0.754
NCI-H1993	0.993	0.941	0.977	0.963	1.06	0.732	0.696	0.649	0.686
NCI-H2009	1.02	0.993	1.08	1.02	0.964	1.06	1.03	0.936	1
NCI-H2023	1.02	0.906	0.955	1.01	0.979	0.881	0.613	0.547	0.394
NCI-H2085	1.02	0.993	0.981	1.06	1.01	1.07	0.952	0.942	0.955
NCI-H2087	1.14	0.887	1.06	1.25	1.37	0.954	0.815	0.868	0.819
NCI-H2126	1.03	1.04	1.01	1.04	1.07	0.882	0.614	0.553	0.599
NCI-H2170	0.928	0.948	0.939	1.01	1.02	0.945	0.994	0.958	0.976
NCI-H2228	1.1	1.03	0.971	1.11	1.06	0.857	0.781	0.743	0.652
NCI-H2342	0.902	0.976	1.05	0.928	1.06	1.16	0.863	0.805	0.7
NCI-H2347	1.01	1.04	1.15	0.983	1.04	1.03	0.922	0.908	0.967
NCI-H2405	0.676	0.853	0.975	1.06	1.01	0.917	0.816	0.739	0.671
NCI-H3122	0.98	1.02	1.04	1.05	1.05	0.979	0.986	0.99	0.962
PC-3 [JPC-3]	1.05	1.03	1.05	1.03	1.05	1.04	0.937	1.02	1.02
PC-14	0.977	0.995	0.974	1.07	1.05	1.04	0.769	0.875	0.946
RERF-LC-KJ	0.899	0.981	1	0.952	1.01	0.937	0.797	0.828	0.838
SK-LU-1	0.979	1.05	1.12	1.16	1.14	0.979	0.938	0.854	0.918
SK-MES-1	1.01	1.02	1.06	1.01	1.02	1.03	0.955	0.796	0.921
SW 900	0.834	0.782	0.809	0.9	0.799	0.746	0.727	0.81	0.673
SW 1573	0.998	0.894	0.977	1.05	1.15	0.824	0.762	0.697	0.672
